Assay results as given in PubChem BioAssay AID434987 (Southern Research Specialized Biocontainment Screening …, 2010).
Calls of active or inactive are those of the source. The rule behind the calls is not given here.

Tested on: M. tuberculosis H37Rv growth inhibition with meropenem
Assay: dose response, H37Rv, with and without meropenem (AID 434987);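 note: growth over 7 days at 37 °C before Alamar Blue read on day 9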
[1] = M. tuberculosis H37Rv growth inhibition, measured here: IC50 without meropenem
[2] = M. tuberculosis H37Rv growth inhibition, measured here: IC90 without meropenem
[3] = measured here: IC90 with meropenem

Structure (SMILES)	IC50	IC50 [1] [µM]	IC90 [2] [µM]	IC90 [3] [µM]
CC(O)/C=C/c1ccc2ccccc2n1 (stereo not drawn)	27.7 µM (inactive)	53.9	> 100	57.5
COc1cc(NC(=O)c2cccc(Cl)c2)c(OC)cc1NC(=O)CN1CCCCC1	7.42 µM	23.7	61.4	75.5
COc1ccc(C[C@H](C)NC[C@@H](O)c2ccc(O)c(NC=O)c2)cc1	> 100 µM (inactive)	> 100	> 100	> 100
O=C(Oc1c(-c2ccccc2)c(=O)n2c3c(cccc13)CC2)c1ccc(F)cc1	6.19 µM	54.2	> 100	34
CCCOc1ccc(C(=O)CCN2CCCCC2)cc1	13.4 µM	54	77.1	36.4
O=C(NC(=S)N1CCOCC1)c1ccc([N+](=O)[O-])cc1	20.7 µM (inactive)	46.8	> 100	> 100
Nc1ncnc2c1c(-c1ccc(Oc3ccccc3)cc1)cn2C1CCCC1	17.1 µM (inactive)	26.4	42.5	60.3
O=C(NN1C(=O)c2cc(Br)ccc2NC1c1ccccc1Cl)c1ccncc1 (stereo not drawn)	12.5 µM	35	50.7	13.7
O=C(CCSc1nnc(-c2ccncc2)o1)Nc1ccccc1Cl	> 100 µM (inactive)	> 100	> 100	> 100
O=C1CCNc2c(Cl)cccc21	> 100 µM (inactive)	> 100	> 100	> 100
Cn1ccnc1C(=O)Cc1ccc([N+](=O)[O-])cc1	7.78 µM	44.1	48.9	22.6
C/C(=N\OCC(=O)Nc1nc2ccccc2s1)c1ccccc1	13.1 µM	47.6	54.1	35.6
CC1CCN(C(=S)NC(=O)c2ccccc2)CC1	12 µM	40.7	77.6	13.6
C=CCOc1ccc(C2N3CC4(C)CN2CC(CCC)(C3)C4=O)cc1 (stereo not drawn)	> 100 µM (inactive)	> 100	> 100	> 100
CN1C2CCC1CC(OC(=O)c1ccc([N+](=O)[O-])cc1)C2 (stereo not drawn)	> 100 µM (inactive)	> 100	> 100	> 100
Cc1cccc(NC(=O)c2nc[nH]c2C(=O)N[C@@H](CC(C)C)C(=O)OCc2ccccc2)c1	9.43 µM	26.1	51.8	> 100
COc1ccc(C2CC(c3c(-c4ccccc4)c4cc(Cl)ccc4[nH]c3=O)=NN2S(C)(=O)=O)cc1 (stereo not drawn)	> 100 µM (inactive)	> 100	> 100	> 100
CC1CC1C(=O)Nc1nc(-c2cccs2)c(-c2cccs2)s1 (stereo not drawn)	94.3 µM (inactive)	> 100	> 100	> 100
CSc1ccc(CCNC(=O)c2cc(C)nn2-c2ccccc2)cc1	> 100 µM (inactive)	> 100	> 100	> 100
O=C1NC(=O)N(Cc2ccco2)C(=O)/C1=C\c1ccc(-c2ccc(F)cc2)o1	80.7 µM (inactive)	84.5	> 100	> 100
C[C@H](NC(=O)c1[nH]cnc1C(=O)Nc1ccc(Cl)cc1)C(=O)OC(C)(C)C	10.4 µM	> 100	> 100	> 100

Structure (SMILES)	IC50	IC50 [1] [µM]	IC90 [2] [µM]	IC90 [3] [µM]
COc1cc(C(=O)N/N=C/c2ccc(OC(=O)c3cccc(C)c3)cc2)ccc1O	4.54 µM	77.7	> 100	53.4
O=C(Cc1ccc(Cl)cc1Cl)Nc1ccc(OC(F)F)c(Cl)c1	12.1 µM	> 100	> 100	13.7
COCCCNc1nc(SCc2ccccc2)nc2sc3c(c12)CCC3	97.3 µM (inactive)	> 100	> 100	> 100
CCOc1cccc(=O)c2c(C)n(Cc3ccccc3)c(C)c12	> 100 µM (inactive)	> 100	> 100	> 100
CCOc1ccc(-c2nnc(SCC(=O)N3CCOCC3)o2)cc1	> 100 µM (inactive)	> 100	> 100	> 100
Cc1cc(Br)cc2c(C(=O)NCC3CCCO3)cc(-c3ccccc3)nc12 (stereo not drawn)	95.6 µM (inactive)	> 100	> 100	> 100
COc1ccccc1CNC(=O)c1cc2c(C)nn(Cc3ccc(F)cc3)c2s1	> 100 µM (inactive)	> 100	> 100	> 100
Cc1ccc2[nH]c(O)c(N=Nc3nc4ccccc4s3)c2c1	6.76 µM	> 100	> 100	> 100
COc1ccccc1N1CCN(CC(=O)Nc2cc(F)ccc2C)CC1	47 µM (inactive)	58.6	> 100	91
O=C(N/N=C/c1cccc(NC(=O)c2ccc(Cl)cc2)c1)c1cccc(O)c1	> 100 µM (inactive)	> 100	> 100	> 100
O=C(CCNc1ccccc1)c1cccc([N+](=O)[O-])c1	11.7 µM	> 100	> 100	45.8
CC(C(=O)Nc1sc2c(c1C(=O)NCc1ccco1)CCCC2)N1C(=O)c2ccccc2C1=O (stereo not drawn)	46.1 µM (inactive)	> 100	> 100	> 100
NS(=O)(=O)c1ccc(O)c(NC(=O)c2ccc([N+](=O)[O-])o2)c1	12.7 µM (inactive)	27.2	> 100	> 100
Cn1c(O)c(C2=c3ccccc3=NC2=O)[nH]c1=S	16.6 µM	> 100	> 100	> 100
Cc1ccnn1CC(=O)N/N=C/c1ccc([N+](=O)[O-])s1	91.5 µM (inactive)	88.5	95.9	> 100
CCOC(=O)c1sc(NC(=O)Cn2nnc3sc4c(c3c2=O)CCC(C(C)(C)C)C4)nc1C (stereo not drawn)	93.7 µM (inactive)	> 100	> 100	> 100
CCc1ccc(NC(=O)c2c(Cl)nc(C)c(Cl)c2C)cc1	7.1 µM	> 100	> 100	> 100
CC1=Nc2ccccc2/C1=C\c1nc(-c2ccc(F)cc2)oc1O	3.73 µM	93.7	> 100	> 100
CC(C)(C)NCCCOc1ccc(Cl)cc1C(C)(C)C	24.8 µM (inactive)	45.9	51.6	26.9
COc1ccc(C(=O)CN(C(=O)c2ccc(Cl)cc2)N2C(=O)c3ccccc3C2=O)cc1	5.66 µM	34.9	> 100	22.4
O=C(COC(=O)Cc1ccc(S(=O)(=O)N2CCCCC2)s1)Nc1ccc2c(c1)OCO2	76.2 µM (inactive)	68.8	> 100	> 100
